1 compound from article PMC9386805 (ACS Omega, 2022) can be followed below.

Values after ≈ are worked out from the molar mass of the structure shown.

Common to all, as to test: MIC by microdilution
Holding throughout (type): cell-based
For orientation: In broth dilution the organism is exposed to a series of concentrations in liquid medium.

Assay [1] concerns S. aureus subsp. aureus Rosenbach (ATCC 25923). To be noted: Staphylococcus aureus, ATCC25923, read-out: MIC, SA.
The test system of assay [2] is E. coli (Migula) Castellani and Chalmers (ATCC 25922). The following applies: Escherichia coli, ATCC25922, read-out: MIC, EC.
Assay [3] relates to Salmonella enterica subsp. enterica serovar Typhimurium (ATCC 14028). To be noted: ATCC14028|TYPHIMURIUM, read-out: MIC, ST.
Assay [4] relates to P. aeruginosa (Schroeter) Migula (ATCC 27853). The following applies: Pseudomonas aeruginosa, ATCC27853, read-out: MIC, PA.

As a reminder, the MIC is the smallest concentration in the dilution series that meets the test's criterion for growth inhibition. As for `CNC(C)C1CCC(N)C(OC2C(N)CC(N)C(OC3OCC(C)(O)C(NC)C3O)C2O)O1` (stereo not shown) [gentamicin], the MIC is 4 µg/mL (≈ 8.38 µM) in assay [1], 8 µg/mL (≈ 16.8 µM) in assay [2], 2 µg/mL (≈ 4.19 µM) in assay [3] and 4 µg/mL (≈ 8.38 µM) in assay [4].
